Reference: PMC8839658, “Design and Activity of Novel Oxadiazole Based Compounds That Target Poly(ADP-ribose) Polymerase” (Molecules, 2022)
Where two headings read alike, the source gives them in different places.

Key:
MCF-7 cells [1] = test: Foci formation assay, MCF-7 cells; assay type: cell-based, human; details: MCF-7, crystal violet
Protocol: (§1) MCF-7 and MDA-MB-231 cells were plated in six-well plates in 2 mL media with or without compounds and cultured. When foci had formed, MCF-7 and MDA-MB-231 cells were washed with PBS and fixed with ice-cold methanol for 10 min at 4°C. Methanol was removed and crystal violet solution was used to stain foci at room temperature for 10 min. The resultant solution was removed; immobilized MCF-7 and MDA-MB-231 cells were rinsed with distilled water and dried at room temperature.
(§2) Figure 5 Compounds 5u, 5s, and Olaparib inhibited the foci formation of MCF-7 (left panel of A) and MDA-MB-231 (left panel of B) cells. Visualization of foci formed was achieved by use of Crystal Violet. Inhibition of foci formation was also quantified (right panels of both A,B) The data are expressed as mean ± SEM. * p ≤ 0.05; ** p ≤ 0.01; *** p ≤ 0.001.

MDA-MB-231 cells [2] = test: Western blot, PARP1 cleavage in MDA-MB-231 cells; assay type: cell-based, human; details: MDA-MB-231, 1 or 10 µM, 60 h
Protocol: (§3) Western blot analysis was performed to determine the levels of PARP1 cleavage and p-H2AX in MCF-7 and MDA-MB-231 cells using previously reported methods. Cells at 50–60% confluence were treated with compounds and incubated for 60 h in 2% FBS. MCF-7 and MDA-MB-231 cells were also treated with Olaparib, 5u, or 5s and the levels of cleaved PARP1 and p-H2A-X were determined using the respective antibodies.
(§4) Figure 4 The effect of compounds 5u, 5s, and Olaparib on PARP1 cleavage (upper panel of A,B) phosphorylation of H2A-X (Ser139) (lower panel of A,B), and CASPASE-3 activity (C,D) in MCF-7 and MDA-MB-231 cells. Cancer cells were treated with or without compounds 5u, 5s,and Olaparib (1 or 10 µM). The protein levels after treatment were observed by western blot analysis. GAPDH was used as input control. The data are expressed as mean ± SEM. ** p ≤ 0.01; *** p ≤ 0.001.

MCF-7 cells [3] = test: MCF-7 cell viability assay (Alamar Blue); assay type: cell-based, human
Protocol: (§5) Initially, the newly synthesized oxadiazoles were examined in cell viability studies in human breast cancer (MCF-7) cells using Alamar Blue assays.
(§6) MCF-7 and MDA-MB-231 (2000) cells were cultured in MEM or Leibovitz’s L-15 medium enriched with 2% FBS and maintained in a humidified atmosphere of 5% CO2 at 37 °C [44]. DMSO dissolved compounds were kept as a stock solution, and diluted with a cell culture medium to the desired concentration. Cancer cells (4 × 10^3) were grown overnight in 96-well plates, cultured, and treated with oxadiazoles or Olaparib at 0, 0.01, 0.1, 10, 100, and 1000 µM concentrations for 72 h. The inhibitory effect of the compounds was assessed using Alamar Blue reagent.
(§7) MCF-7 and MDA-MB-231 were treated with 5u, 5s and Olaparib (0, 0.01, 0.1, 1, 10, 100 µM) for 72 h, respectively. The viability of MCF-7 (A) and MDA-MB-231 cells (B) were analyzed using a microplate reader to measure the fluorescence of Alamar Blue reagent (excitation wavelength is between 530–560 nm and emission wavelength is 590 nm). The results are means of triplicate determinations.

[4] = molecular target: T1, recombinant human PARP enzyme (PARP1) (Homo sapiens, UniProt P09874); test: PARP activity, PARP/Apoptosis Universal Colorimetric Assay Kit; assay type: biochemical; details: n = 3
T1 construct: purchased R&D Systems Ltd., Abingdon, UK 4677-096-K
Protocol: PARP activity was measured using the PARP/Apoptosis Universal Colorimetric Assay Kit (4677-096-K, R&D Systems Ltd., Abingdon, UK). The enzyme inhibition assay uses the histone proteins immobilized 96-well plate, which measures the incorporation of ADP-ribose (biotin-tagged), followed by detection using streptavidin-conjugated horse-radish peroxidase, and finally the color development after the addition of substrate. Oxadiazoles were incubated with the recombinant human PARP enzyme prior to detection.

MDA-MB-231 cells [5] = test: Foci formation assay, MDA-MB-231 cells; assay type: cell-based, human; details: MDA-MB-231, crystal violet
Protocol: as §1, §2

MDA-MB-231 cells [6] = test: MDA-MB-231 cell viability assay (Alamar Blue); assay type: cell-based, human; details: MDA-MB-231, 72 h
Protocol: as §5, §6, §7

MCF-7 cells [7] = test: 3D Matrigel growth, MCF-7 cells; assay type: cell-based, human; details: MCF-7, 4% Matrigel, 1 or 10 µM, Alamar Blue
Protocol: (§8) Cells were grown in a medium containing 4% Matrigel. Cells were treated with vehicles or compounds 5s, 5u, or Olaprib (1 or 10 µM), after colonies had formed. Compounds were added into the culture medium every 3 days for a total of 2 cycles. Alamar Blue assay was used for quantification of live cells. The data are expressed as mean ± SEM. * p ≤ 0.05; ** p ≤ 0.01; *** p ≤ 0.001.

MDA-MB-231 cells [8] = test: 3D Matrigel growth, MDA-MB-231 cells; assay type: cell-based, human; details: MDA-MB-231, 4% Matrigel, 1 or 10 µM, Alamar Blue
Protocol: as §8

MDA-MB-231 cells [9] = test: Western blot, p-H2AX (Ser139) in MDA-MB-231 cells; assay type: cell-based, human; details: MDA-MB-231, 1 or 10 µM, 60 h
Protocol: as §3, §4

MCF-7 cells [10] = test: Western blot, p-H2AX (Ser139) in MCF-7 cells; assay type: cell-based, human; details: MCF-7, 1 or 10 µM, 60 h
Protocol: as §3, §4

MCF-7 cells [11] = test: Western blot, PARP1 cleavage in MCF-7 cells; assay type: cell-based, human; details: MCF-7, 1 or 10 µM, 60 h
Protocol: as §3, §4

PARP1 [12] = details: read-out: IC50, PARP1 activity; cited from earlier work
PARP1 [13] = details: read-out: cellular EC50; cited from earlier work
[14] = molecular target: autophagy activating kinase 1 (ULK1); design: method as in PMID 32967366; details: cited from earlier work
[15] = Homo sapiens, MCF7, 72 h, MCF-7, 72 h, Alamar Blue, Figure 2A, read-out: Log IC50, MCF-7 (converted)
[16] = Homo sapiens, MCF7, 72 h, MCF-7, 72 h, Alamar Blue, read-out: IC50, cell viability of MCF-7 cells
[17] = MCF-7, 72 h, Alamar Blue, read-out: IC50, cell viability of MCF-7 cells
[18] = Homo sapiens, Alamar Blue, Figure 2B, read-out: Log IC50, MDA-MB-231 (converted)
[19] = Homo sapiens, Alamar Blue, read-out: IC50, cell viability of MDA-MB-231 cells
[20] = Alamar Blue, read-out: IC50, cell viability of MDA-MB-231 cells

T1 sequence (P09874 whole entry): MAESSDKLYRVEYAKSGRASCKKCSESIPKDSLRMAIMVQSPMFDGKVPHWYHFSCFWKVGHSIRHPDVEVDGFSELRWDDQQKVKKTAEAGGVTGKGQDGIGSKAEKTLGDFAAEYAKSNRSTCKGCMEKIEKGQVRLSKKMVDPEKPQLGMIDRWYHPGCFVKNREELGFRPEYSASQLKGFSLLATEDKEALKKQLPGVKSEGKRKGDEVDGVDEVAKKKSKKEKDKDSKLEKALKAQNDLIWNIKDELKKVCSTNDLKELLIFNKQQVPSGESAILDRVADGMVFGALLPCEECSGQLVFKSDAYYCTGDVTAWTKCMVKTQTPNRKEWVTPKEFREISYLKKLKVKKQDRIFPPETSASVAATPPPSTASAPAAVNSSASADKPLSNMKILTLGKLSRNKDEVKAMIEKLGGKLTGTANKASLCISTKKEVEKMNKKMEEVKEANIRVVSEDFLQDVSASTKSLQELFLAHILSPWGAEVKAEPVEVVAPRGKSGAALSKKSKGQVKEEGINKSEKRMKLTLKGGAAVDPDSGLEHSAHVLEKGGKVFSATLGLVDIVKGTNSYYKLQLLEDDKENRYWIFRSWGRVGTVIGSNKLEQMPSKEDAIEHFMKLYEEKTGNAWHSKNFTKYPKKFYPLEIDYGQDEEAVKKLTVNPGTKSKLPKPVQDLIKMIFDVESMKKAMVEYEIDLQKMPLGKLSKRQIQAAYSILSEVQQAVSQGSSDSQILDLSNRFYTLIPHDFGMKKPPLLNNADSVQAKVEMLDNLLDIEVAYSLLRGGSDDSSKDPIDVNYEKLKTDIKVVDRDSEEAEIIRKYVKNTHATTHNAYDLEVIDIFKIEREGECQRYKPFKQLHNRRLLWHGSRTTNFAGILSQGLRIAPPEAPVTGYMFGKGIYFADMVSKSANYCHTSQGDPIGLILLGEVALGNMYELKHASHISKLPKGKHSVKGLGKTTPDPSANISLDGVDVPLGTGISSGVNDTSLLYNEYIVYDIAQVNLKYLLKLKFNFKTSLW

| IC50 (MCF-7 cells [3]; [15]) [µM] | IC50 (MCF-7 cells [3]; [16]) [µM] | IC50 (MCF-7 cells [3]; [17]) [µM] | inhibition at 0.01 µM [4] [%] | inhibition at 0.1 µM [4] [%] | inhibition at 1 µM [4] [%] | inhibition at 10 µM [4] [%] | inhibition at 100 µM [4] [%] | IC50 (MDA-MB-231 cells [6]; [18]) [µM] | IC50 (MDA-MB-231 cells [6]; [19]) [µM] | IC50 (MDA-MB-231 cells [6]; [20]) [µM] | SMILES | foci formation (MCF-7 cells [1]) | PARP1 cleavage (MDA-MB-231 cells [2]) | foci formation (MDA-MB-231 cells [5]) | 3D growth in Matrigel (MCF-7 cells [7]) | 3D growth in Matrigel (MDA-MB-231 cells [8]) | level of p-H2AX (MDA-MB-231 cells [9]) | level of p-H2AX (MCF-7 cells [10]) | PARP1 cleavage (MCF-7 cells [11]) | further results |
| --- | --- | --- | --- | --- | --- | --- | --- | --- | --- | --- | --- | --- | --- | --- | --- | --- | --- | --- | --- | --- |
| 1.45 | 1.45 | 1.4 | 4.82 | 6.84 | 45.4 | 54.2 | 82.2 | 29.5 | 29.3 | 29.3 | COc1ccc(Cc2nnc(-c3cccc(-c4cccc(C=O)c4)c3)o2)cc1 [compound 5u, 3′-(5-(4-Methoxybenzyl)-1,3,4-oxadiazol-2-yl)-[1,1′-biphenyl]-3-carbaldehyde] | decreased in a dose-dependent manner | Equivalent levels of cleaved PARP1 | decreased in a dose-dependent manner | roughly equivalent efficacy to Olaparib | roughly equivalent efficacy to Olaparib | equivalent increases in the level of p-H2AX | equivalent increases in the level of p-H2AX | Equivalent levels of cleaved PARP1 | – |
| 15.5 | 15.3 | 15.3 | 2.38 | 10.6 | 21.3 | 65 | 76.5 | 19.1 | 19.2 | 19.2 | COc1ccc(Cc2nnc(-c3cccc(-c4ccnc(F)c4C)c3)o2)cc1OC [compound 5s, 2-(3,4-Dimethoxybenzyl)-5-(3-(2-fluoro-3-methylpyridin-4-yl)phenyl)-1,3,4-oxadiazole] | decreased in a dose-dependent manner | Equivalent levels of cleaved PARP1 | decreased in a dose-dependent manner | roughly equivalent efficacy to Olaparib | roughly equivalent efficacy to Olaparib | equivalent increases in the level of p-H2AX | equivalent increases in the level of p-H2AX | Equivalent levels of cleaved PARP1 | – |
| – | – | – | – | – | – | – | – | – | – | – | O=C(c1cc(Cc2n[nH]c(=O)c3ccccc23)ccc1F)N1CCN(C(=O)C2CC2)CC1 [Olaparib, reference compound] | decreased in a dose-dependent manner | Equivalent levels of cleaved PARP1 | decreased in a dose-dependent manner | inhibited the growth | inhibited the growth | equivalent increases in the level of p-H2AX | equivalent increases in the level of p-H2AX | Equivalent levels of cleaved PARP1 | IC50 (MCF-7 cells [3]; Homo sapiens, MCF7, 72 h, read-out: Log IC50, MCF-7, MCF-7, 72 h, Alamar Blue (converted), Figure 2A): 3.31 µM; IC50 (MCF-7 cells [3]; read-out: IC50, cell viability of MCF-7 cells, MCF-7, 72 h, Alamar Blue): 3.2 µM; IC50 (MDA-MB-231 cells [6]; Homo sapiens, read-out: IC50, cell viability of MDA-MB-231 cells): 70.2 µM; IC50 (MDA-MB-231 cells [6]; Homo sapiens, read-out: IC50, cell viability of MDA-MB-231 cells, MDA-MB-231, 72 h, Alamar Blue): 70.2 µM; IC50 (MDA-MB-231 cells [6]; Homo sapiens, read-out: Log IC50, MDA-MB-231 (converted)): 70.8 µM |
| – | – | – | – | – | – | – | – | – | – | – | NC(=O)c1cccc2[nH]c(-c3ccc(-c4nnco4)cc3)nc12 [compound 1] | – | – | – | – | – | – | – | – | IC50 (PARP1 [12]): 0.001 µM; EC50 (PARP1 [13]): 0.0037 µM |
| – | – | – | – | – | – | – | – | – | – | – | FC(F)(F)c1cnc(Nc2ccc3c(c2)OCCO3)nc1NC1CC1 [compound 2] | – | – | – | – | – | – | – | – | IC50 [14]: 0.014 µM |
